Assay results: patent US11723987B2, “Double suicide gene vector systems for stem cells” (UNIVERSITY OF MIAMI, priority 2016, dated 2023)
“Also recorded” adds a separate entry of the source.

Experiments:
λH1 cells (H1.1 cells) = assay: MTT kill curve / pro-drug exposure of undifferentiated suicide-gene modified hESc; assay type: cell-based, human; details: for exposure time after which most λH1 cells die: 10 μM CB1954, 100 μM GCV (FIG. 8c); for ablation of H1.1 cells: after 7 days of exposure (FIG. 2); for sensitivity of undifferentiated modified clones to pro-drug: undifferentiated state
Text: Clones of the hESc line H1 containing both constructs were selected using Puro (for plasmid L) and Neo (for plasmid F). We used electroporation of the linearized plasmids followed by Puro+Neo selection to achieve stable integration of both cassettes (λH1). Integration was confirmed by PCR, and positive clones were expanded and stocked in liquid N2. ˜25 double resistant clones were handpicked, expanded under antibiotic selection and frozen in liquid N2. A typical undifferentiated colony of one such clone, propagated in Puro+Neo to maintain selective pressure, was imaged. […] Aliquots were screened by genomic PCR to confirm the integration of both constructs (data not shown). qRT-PCR was performed to determine which clones had higher transgene (HSV-TK and NTR) expression. Clone A (H1.1 from now on) was selected for further testing based on the results of these assays. A kill curve using different dosages for GCV (0.01 to 1000 μM) and CB1954 (0.1 to 300 μM) was done for H1.1. Cell death was quantified by MTT assays on H1.1 and the parental wild-type H1 line. These assays helped us determine the optimal concentration of each pro-drug that leads to complete ablation of undifferentiated H1.1 cells while preserving the viability of the parental line within 7 days. Such concentration was in the range of 10-100 μM for GCV and 50-100 μM for CB1954, as previously reported in the literature for other cell types^26,54,55. The integration of these constructs had no detectable effects in terms of pluripotency marker expression (TRA-1-60, SSEA3, SSEA4, Oct3/4, Nanog) vs. the unmodified parental line H1, as determined by qRT-PCR, immunofluorescence and FACS analyses (data not shown).
A kill curve using different dosages for GCV (0.01 to 1000 μM) and CB1954 (0.1 to 300 μM) was done for λH1 and the parental H1 lines. Cell death was quantified by MTT [3-(4,5-dimethylthiazol-2-yl)-2,5-diphenyltetrazolium bromide] assays, which helped us determine the optimal concentration of each pro-drug that leads to ablation of undifferentiated λH1 cells while preserving the viability of the parental line within 7 days. Such concentration was in the range of 10-100 μM for both GCV and CB1954 (FIG. 8a), as previously reported in the literature for other cell types (21, 22). We used 10 μM for CB1954 and 100 μM of GCV for all subsequent experiments.
hESc (H1, National Stem Cell Registry #WA01, passage 35-45) were cultured as described in Schuldiner et al., PNAS USA 97: 11307-11312 (2000) using mTeSR™ (STEMCELL Technologies, Vancouver, Canada). […] MTT (3-(4,5-dimethylthiazol-2-yl)-2,5-Diphenyltetrazolium Bromide) is a reagent which is converted from a soluble tetrazolium to its insoluble formazan form via the activity of mitochondrial NAD(P)H-dependent oxidoreductase activity. This can be used to evaluate growth and proliferation of hESC colonies. MTT growth assays were performed for the sensitivity of transfected colonies to neomycin, puromycin, GCV and CB1954 at varying concentrations as previously described.

parental H1 hESc line = assay: MTT kill curve / pro-drug exposure of parental unmodified hESc; assay type: cell-based, human; details: up to 7 days of exposure
Text: Clones of the hESc line H1 containing both constructs were selected using Puro (for plasmid L) and Neo (for plasmid F). We used electroporation of the linearized plasmids followed by Puro+Neo selection to achieve stable integration of both cassettes (λH1). Integration was confirmed by PCR, and positive clones were expanded and stocked in liquid N2. ˜25 double resistant clones were handpicked, expanded under antibiotic selection and frozen in liquid N2. A typical undifferentiated colony of one such clone, propagated in Puro+Neo to maintain selective pressure, was imaged. […] Cell death was quantified by MTT assays on H1.1 and the parental wild-type H1 line. […] The integration of these constructs had no detectable effects in terms of pluripotency marker expression (TRA-1-60, SSEA3, SSEA4, Oct3/4, Nanog) vs. the unmodified parental line H1, as determined by qRT-PCR, immunofluorescence and FACS analyses (data not shown).
A kill curve using different dosages for GCV (0.01 to 1000 μM) and CB1954 (0.1 to 300 μM) was done for λH1 and the parental H1 lines. Cell death was quantified by MTT [3-(4,5-dimethylthiazol-2-yl)-2,5-diphenyltetrazolium bromide] assays, which helped us determine the optimal concentration of each pro-drug that leads to ablation of undifferentiated λH1 cells while preserving the viability of the parental line within 7 days. […]

teratomas from λH1 cells = assay: Teratoma formation/elimination in immunodeficient mice xenotransplanted with undifferentiated λH1 cells; assay type: in vivo, NOD-SCID mice
Method: In order to test whether our suicide gene strategy works as intended in vivo, 5×10^6 undifferentiated λH1 cells were transplanted subcutaneously in the left posterior dorsal flank of 5-6-week-old immunodeficient NOD-SCID mice. These conditions are known to result in the formation of teratomas within 6-9 weeks. Groups were assigned as follows: • 1. Control (no treatment): 3 mice • 2. Peri-transplantation treatment with GCV (40 mg/kg of body weight; 5 days, starting the 7th day after transplantation): 4 mice • 3. Peri-transplantation treatment with CB1954 (20 mg/kg of body weight; 5 days, starting the 7th day after transplantation): 4 mice
As described in the literature, tumors could be manually palpated and measured using calipers in the control group starting at week 6-7. At week 10, one of the mice was euthanized for histopathological characterization of the teratoma. Starting on week 11, we treated the remaining two mice with a combination of GCV and CB1954 to test the hypothesis that pro-drug administration would eliminate already formed tumors.
Two mice in this group were euthanized at this point, showing no evidence of tumors (data not shown). […] This could be due to either the carry-over of residual hESc escapees that survived the initial GCV regimen, or to the development of GCV-resistant mutations in HSV-TK, as described in the literature. To test these two hypotheses, we re-treated these animals with ganciclovir in a 5-day drug/2-day rest regimen for the following two weeks. If the reason for the appearance of these late-onset tumors was resistance to the drug, we should continue to observe tumor growth despite the treatment; in contrast, if they were derived from surviving escapees, we might see tumor recession.
All animal experiments were conducted under the supervision of the University of Miami Institutional Animal Care and Use Committee (IACUC). NOD-SCID mice (5-6 weeks old; Jackson Laboratories, Bar Harbour, Me.) were housed in […] pathogen-free (SPF) conditions at the Division of Veterinary Resources (DVR). 5×10^6 hESc were resuspended in 50 μl mTeSR supplemented with […] of the ROCK inhibitor Y-27632A, and subsequently mixed with undiluted Matrigel of equal volume. The cell suspension was injected into the subcutis of the left posterior dorsal flank of the animal. Tumor growth was monitored with a caliper. Mice were euthanized after the observation/re-treatment period, as described in the Results section. Euthanized animals were subject to general observation. The injection site was inspected and tumor tissue, if present, was collected and processed for histopathological analysis. Lungs, liver spleen and pancreas were also harvested for histological analysis of potential tumor invasion.

tumor cell lines = details: Prof. Searle, personal communication; cited from earlier work

Row | Molecule | exposure time after which most λH1 cells die (λH1 cells (H1.1 cells)) [days] | ablation of H1.1 cells (λH1 cells (H1.1 cells)) [%] | sensitivity of undifferentiated modified clones to pro-drug (λH1 cells (H1.1 cells)) | sensitivity of parental H1 line to pro-drug (parental H1 hESc line) | tumor formation after peri-transplantation treatment with CB1954 (teratomas from λH1 cells; 20 mg/kg, 5 days, starting the 7th day after transplantation, 11 weeks into the follow-up) | optimal concentration of pro-drug that leads to ablation of undifferentiated modified cells while preserving the viability of the parental line (λH1 cells (H1.1 cells); within 7 days, MTT assay, kill curve GCV 0.01 to 1000 μM, CB1954 0.1 to 300 μM) [µM] | tumor detection after peri-transplantation treatment with GCV (teratomas from λH1 cells; 40 mg/kg, 5 days, starting the 7th day after transplantation, up to week 10) | tumors after GCV re-treatment (teratomas from λH1 cells; 5-day drug/2-day rest regimen, 2-week course, one tumor >250 mm^3 at initiation (FIG. 11b)) | late-onset tumors in GCV-pretreated mice (teratomas from λH1 cells; two remaining mice, additional week after week 10) | fold lower CB1954 concentration to which cells are sensitized vs the native enzyme (tumor cell lines) [fold]
1 | NC(=O)c1cc(N2CC2)c([N+](=O)[O-])cc1[N+](=O)[O-] [CB1954, 5-(aziridin-1-yl)-2,4-dinitrobenzamide] | 3 | 100 | sensitive | largely insensitive; also recorded: resistant; also recorded: remain largely unscathed | none of the animals in the third group (treated in the peri-transplantation period with CB1954) showed signs of tumor formation |  |  |  |  | 
2 | Nc1nc(O)c2ncn(COC(CO)CO)c2n1 [GCV, ganciclovir] | 7 | 100 | sensitive | largely insensitive; also recorded: resistant; also recorded: remain largely unscathed |  | 10 to 100 | No tumors could be detected | both tumors virtually disappeared | the tumors grew significantly in both mice | 
3 | T41L/N71S: double mutant of E. coli nitroreductase (NTR, nfsB) with enhanced kinetics of CB1954 activation (protein, UniProt P38489 1-217, looked up, variant T41L N71S) Oxygen-insensitive NAD(P)H …: MDIISVALKRHSTKAFDASKKLTPEQAEQIKTLLQYSPSSLNSQPWHFIVASTEEGKARVAKSAAGNYVFSERKMLDASHVVVFCAKTAMDDVWLKLVVDQEDADGRFATPEAKAANDKGRKFFADMHRKDLHDDAEWMAKQVYLNVGNFLLGVAALGLDAVPIEGFDAAILDAEFGLKEKGYTSLVVVPVGHHSVEDFNATLPKSRLPQNITLTEV |  |  |  |  |  |  |  |  |  | ~15
